In patent US20130172320A1, “PYRIDO [4,3-B] INDOLE AND PYRIDO [3,4-B] INDOLE DERIVATIVES AND METHODS OF USE” (priority 2010, published 2013):

Key:
[1] = target: T1, rat adrenergic α1B receptor (Rattus norvegicus, UniProt P15823); test: Adrenergic α1B radioligand binding ([3H]Prazosin); set-up: species or system Wistar Rat; details: compound at 0.1 μM; read-out: Percentage inhibition of ligand binding, Adrenergic (0.1 μM) a1B
T1 construct: rat adrenergic α1B receptor obtained from Wistar Rat liver; from tissue; host or cells: Wistar Rat liver
T1 sequence (P15823 1-515): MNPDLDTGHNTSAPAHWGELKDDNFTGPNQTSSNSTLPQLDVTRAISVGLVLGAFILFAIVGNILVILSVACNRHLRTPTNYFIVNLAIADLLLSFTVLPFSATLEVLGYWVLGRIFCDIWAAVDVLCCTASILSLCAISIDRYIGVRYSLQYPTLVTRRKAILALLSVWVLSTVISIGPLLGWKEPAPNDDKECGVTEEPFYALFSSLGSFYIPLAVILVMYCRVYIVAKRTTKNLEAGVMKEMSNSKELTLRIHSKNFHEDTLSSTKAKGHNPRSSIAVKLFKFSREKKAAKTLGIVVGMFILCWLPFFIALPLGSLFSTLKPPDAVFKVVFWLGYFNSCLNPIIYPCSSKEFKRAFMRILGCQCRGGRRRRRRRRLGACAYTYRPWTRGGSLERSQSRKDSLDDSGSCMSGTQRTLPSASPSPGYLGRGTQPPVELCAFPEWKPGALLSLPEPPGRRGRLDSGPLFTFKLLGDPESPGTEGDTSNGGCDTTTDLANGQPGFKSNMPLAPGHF
Experimental: To evaluate in radioligand binding assays the activity of compounds of the invention, rat adrenergic α1B receptor obtained from Wistar Rat liver (Garcia-S'ainz, J. et al, Biochem. Biophys. Res. Commun. 186:760, 1992; Michel, A. et al, Br. J. Pharmacol. 98:883, 1989) in a modified Tris-HCl buffer (50 mM Tris-HCl buffer, pH 7.4, 0.5 mM EDTA) was used. Compounds of the invention were incubated with 0.25 nM [^3H]Prazosin for 60 min at 25° C. Non-specific binding was estimated in the presence of 10 μM phentolamine. Receptor proteins were filtered and washed, the filters were then counted to determine [^3H]Prazosin specifically bound. Compounds were screened at 1 μM or lower, using 1% DMSO as vehicle. Biochemical assay results are presented as the percent inhibition of specific binding in Table 3.

[2] = target: human recombinant dopamine D2L receptor (Homo sapiens, UniProt P14416); test: Dopamine D2L radioligand binding ([3H]Spiperone); details: compound at 0.2 μM; read-out: Percentage inhibition of ligand binding, Dopamine (0.2 μM) D2L
Experimental: To evaluate in radioligand binding assays the activity of compounds of the invention, human recombinant dopamine D2L receptor expressed in Chinese hamster ovary (CHO) cells (Grandy, D. et al, Proc. Natl. Acad. Sci. USA. 86:9762, 1989; Hayes, G. et al, Mol. Endocrinol. 6:920, 1992) in a modified Tris-HCl buffer (50 mM Tris-HCl, pH 7.4, 1.4 mM Ascorbic Acid, 0.001% BSA, 150 mM NaCl) was used. Compounds of the invention were incubated with 0.16 nM [^3H]Spiperone for 120 min at 25° C. Non-specific binding was estimated in the presence of 10 μM Haloperidol. Receptor proteins were filtered and washed, the filters were then counted to determine [^3H]Spiperone specifically bound. Compounds were screened at 1 μM or lower, using 1% DMSO as vehicle. Biochemical assay results are presented as the percent inhibition of specific binding in Table 3.

[3] = target: T2, human recombinant serotonin (5-Hydroxytryptamine) 5-HT2C receptor (Homo sapiens, UniProt P28335); test: Serotonin 5-HT2C radioligand binding ([3H]Mesulergine); details: compound at 0.1 μM; read-out: Percentage inhibition of ligand binding, Serotonin (0.1 μM) 5-HT2C
T2 construct: expressed in transfected cells; host or cells: Chinese hamster ovary (CHO) K1 cells
T2 sequence (P28335 33-458): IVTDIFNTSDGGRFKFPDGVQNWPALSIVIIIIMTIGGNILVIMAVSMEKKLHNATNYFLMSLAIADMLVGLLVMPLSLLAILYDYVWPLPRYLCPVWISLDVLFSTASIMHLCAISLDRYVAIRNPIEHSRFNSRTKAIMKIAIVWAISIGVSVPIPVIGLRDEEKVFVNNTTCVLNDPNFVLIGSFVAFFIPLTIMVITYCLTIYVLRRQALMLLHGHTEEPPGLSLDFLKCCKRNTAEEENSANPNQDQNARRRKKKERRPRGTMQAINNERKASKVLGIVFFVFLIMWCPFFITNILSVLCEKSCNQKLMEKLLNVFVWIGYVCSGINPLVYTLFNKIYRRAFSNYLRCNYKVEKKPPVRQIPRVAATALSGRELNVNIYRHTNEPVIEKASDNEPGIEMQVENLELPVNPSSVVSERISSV
Experimental: To evaluate in radioligand binding assays the activity of compounds of the invention, human recombinant serotonin (5-Hydroxytryptamine) 5-HT2C receptor expressed in Chinese hamster ovary (CHO) K1 cells (Wolf, W. et al, J. Neurochem. 69:1449, 1997) in a modified Tris-HCl buffer (50 mM Tris-HCl, pH 7.4, 0.1% Ascorbic Acid, 10 μM Pargyline) was used. Compounds of the invention were incubated with 1 nM [^3H]Mesulergine for 60 min at 25° C. Non-specific binding was estimated in the presence of 1 μM Mianserin. Receptor proteins were filtered and washed, the filters were then counted to determine [^3H]Mesulergine specifically bound. Compounds were screened at 1 μM or lower, using 1% DMSO as vehicle. Biochemical assay results are presented as the percent inhibition of specific binding in Table 4.

[4] = target: human recombinant serotonin (5-Hydroxytryptamine) 5-HT7 receptor (Homo sapiens, UniProt P34969); test: Serotonin 5-HT7 radioligand binding ([3H]LSD); details: compound at 0.1 μM; read-out: Percentage inhibition of ligand binding, Serotonin (0.1 μM) 5-HT7
Experimental: To evaluate in radioligand binding assays the activity of compounds of the invention, human recombinant serotonin (5-Hydroxytryptamine) 5-HT7 receptor expressed in Chinese hamster ovary (CHO) cells (Roth, B. et al, J. Pharmacol. Exp. Ther. 268:1403, 1994; Shen, Y. et al, J. Biol. Chem. 268:18200, 1993) in a modified Tris-HCl buffer (50 mM Tris-HCl, pH 7.4, 10 mM MgCl2, 0.5 mM EDTA) was used. Compounds of invention were incubated with 5.5 nM [^3H] Lysergic acid diethylamide (LSD) for 2 h at 25° C. Non-specific binding was estimated in the presence of 10 μM Serotonin (5-HT). Receptor proteins were filtered and washed, the filters were then counted to determine [^3H]LSD specifically bound. Compounds were screened at 1 μM or lower, using 1% DMSO as vehicle. Biochemical assay results are presented as the percent inhibition of specific binding in Table 4.

Sequence of human recombinant serotonin (5-Hydroxytryptamine) 5-HT7 receptor (P34969 whole entry): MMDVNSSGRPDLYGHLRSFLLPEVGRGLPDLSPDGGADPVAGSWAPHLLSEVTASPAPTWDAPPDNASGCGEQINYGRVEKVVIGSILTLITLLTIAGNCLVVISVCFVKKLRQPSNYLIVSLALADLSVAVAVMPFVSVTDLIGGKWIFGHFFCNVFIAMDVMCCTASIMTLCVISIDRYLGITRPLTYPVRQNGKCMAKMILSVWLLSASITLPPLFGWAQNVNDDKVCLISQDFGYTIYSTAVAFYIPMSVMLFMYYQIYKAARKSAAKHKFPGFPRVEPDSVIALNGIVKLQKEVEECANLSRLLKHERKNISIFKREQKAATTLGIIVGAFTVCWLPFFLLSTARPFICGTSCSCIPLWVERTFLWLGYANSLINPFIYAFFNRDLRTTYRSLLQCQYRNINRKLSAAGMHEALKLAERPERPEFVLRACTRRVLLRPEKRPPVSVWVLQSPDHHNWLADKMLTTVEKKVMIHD
Sequence of human recombinant dopamine D2L receptor (P14416 whole entry): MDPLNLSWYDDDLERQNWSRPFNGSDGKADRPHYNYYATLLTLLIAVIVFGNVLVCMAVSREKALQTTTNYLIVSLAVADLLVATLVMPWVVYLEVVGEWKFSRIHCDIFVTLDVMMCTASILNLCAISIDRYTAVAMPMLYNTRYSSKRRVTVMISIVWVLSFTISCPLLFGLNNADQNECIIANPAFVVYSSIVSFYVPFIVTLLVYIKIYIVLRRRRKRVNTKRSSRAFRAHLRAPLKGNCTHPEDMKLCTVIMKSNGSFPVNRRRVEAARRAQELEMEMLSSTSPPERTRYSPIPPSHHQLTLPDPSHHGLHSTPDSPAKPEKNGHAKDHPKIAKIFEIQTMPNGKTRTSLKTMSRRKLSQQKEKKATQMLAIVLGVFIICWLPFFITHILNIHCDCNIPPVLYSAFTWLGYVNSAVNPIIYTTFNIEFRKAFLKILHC

Structure (SMILES)	inhibition at 0.1 µM [1]	inhibition at 0.2 µM [2]	inhibition at 0.1 µM [3]	inhibition at 0.1 µM [4]
C#CCC1(C)CN(C)Cc2c1n(C)c1ccc(C)cc21 (centres unmarked) [Compound 47, 2,4,5,8-tetramethyl-4-(prop-2-ynyl)-2,3,4,5-tetrahydro-1H-pyrido[4,3-b]indole]	34%	5%	19%	13%
Cc1ccc2c(c1)c1c(n2C)C(C)(CCc2nc(-c3ccccc3)cs2)CN(C)C1 (centres unmarked) [Compound 48]	20%	-5%	25%	17%
